Where “and” joins values, the source holds several entries; their conditions need not be identical. Equal values may be shown once. Inconclusive results and toxic doses are left out. Peptide text beside a SMILES is read from it. * marks the point of attachment. Cbz = O=C(OCc1ccccc1)*; OtBu = CC(C)(C)O*
System: L1210 leukemia ip in BDF1 mice, survival T/C
Assay: NCI In Vivo Anticancer Drug Screen. Data for tumor model L1210 Leukemia (intraperitoneal) in B6D2F1 (BDF1) mice
Settings: endpoint: mean survival time, higher = longer survival
In short: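 Transplantable tumor model; survival measured in treated vs vehicle control mice. Value = treated/control.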

[1] = dose: 100.0 mg/kg/injection, schedule: Q01DX009 (ip), vehicle: Klucel (hydroxypropylcellulose) (HPC)
[2] = dose: 200.0 mg/kg/injection, schedule: Q01DX009 (ip), vehicle: Klucel (hydroxypropylcellulose) (HPC)
[3] = dose: 100.0 mg/kg/injection, schedule: Q04DX003 (ip), vehicle: Klucel (hydroxypropylcellulose) (HPC)
[4] = dose: 200.0 mg/kg/injection, schedule: Q04DX003 (ip), vehicle: Klucel (hydroxypropylcellulose) (HPC)
[5] = dose: 100.0 mg/kg/injection, schedule: Q04DX002 (ip), vehicle: Klucel (hydroxypropylcellulose) (HPC)
[6] = dose: 200.0 mg/kg/injection, schedule: Q04DX002 (ip), vehicle: Klucel (hydroxypropylcellulose) (HPC)
[7] = dose: 400.0 mg/kg/injection, schedule: Q04DX002 (ip), vehicle: Klucel (hydroxypropylcellulose) (HPC)

CC1(c2ccccc2)NC(=O)NC1=O (stereo not drawn)
T/C (dose: 100.0 mg/kg/injection, schedule: Q01DX001 (ip), vehicle: Klucel (hydroxypropylcellulose) (HPC)): 92 % of control
T/C (dose: 200.0 mg/kg/injection, schedule: Q01DX001 (ip), vehicle: Klucel (hydroxypropylcellulose) (HPC)): 95 % of control
T/C (dose: 400.0 mg/kg/injection, schedule: Q01DX001 (ip), vehicle: Klucel (hydroxypropylcellulose) (HPC)): 95 % of control

Cn1c(-c2ccccc2)nc2c(N)ncnc21
T/C (dose: 25.0 mg/kg/injection, schedule: Q01DX001 (ip), vehicle: saline with Tween-80): 95 % of control
T/C (dose: 50.0 mg/kg/injection, schedule: Q01DX001 (ip), vehicle: saline with Tween-80): 90 % of control
T/C (dose: 100.0 mg/kg/injection, schedule: Q01DX001 (ip), vehicle: saline with Tween-80): 90 % of control

CCOC(=O)CCSc1ccc(NC)cc1
T/C (dose: 100.0 mg/kg/injection, schedule: Q01DX009 (ip), vehicle: saline): 94 % of control
T/C (dose: 100.0 mg/kg/injection, schedule: Q04DX003 (ip), vehicle: acetone): 102 % of control
T/C (dose: 200.0 mg/kg/injection, schedule: Q01DX009 (ip), vehicle: saline): 96 % of control
T/C (dose: 200.0 mg/kg/injection, schedule: Q04DX003 (ip), vehicle: acetone): 102 % of control
T/C (dose: 400.0 mg/kg/injection, schedule: Q01DX009 (ip), vehicle: saline): 97 % of control
T/C (dose: 400.0 mg/kg/injection, schedule: Q04DX003 (ip), vehicle: acetone): 105 % of control

O=S=Nc1c(Cl)cc(Cl)cc1Cl
T/C [1]: 101 % of control
T/C [2]: 104 % of control
T/C (dose: 400.0 mg/kg/injection, schedule: Q01DX009 (ip), vehicle: Klucel (hydroxypropylcellulose) (HPC)): 108 % of control

NC(CCC(=O)NC(CSCCC(=O)c1ccccc1)C(=O)NCC(=O)O)C(=O)O (stereo not drawn)
T/C (dose: 25.0 mg/kg/injection, schedule: Q01DX009 (ip), vehicle: water): 96 % of control
T/C (dose: 50.0 mg/kg/injection, schedule: Q01DX009 (ip), vehicle: water): 91 % of control
T/C (dose: 100.0 mg/kg/injection, schedule: Q01DX009 (ip), vehicle: water): 94 % of control
T/C (dose: 200.0 mg/kg/injection, schedule: Q01DX009 (ip), vehicle: water): 92 % of control
T/C (dose: 400.0 mg/kg/injection, schedule: Q01DX009 (ip), vehicle: water): 97 % of control

O=C(Nc1cccc(O)c1)Nc1ccc(Cl)cc1[N+](=O)[O-]
T/C [1]: 102 % of control
T/C [2]: 101 % of control

CCOC(=O)NC1=C(Cl)C(=O)C(NC(=O)OCC)=C(Cl)C1=O
T/C [3]: 102 % of control
T/C [4]: 92 % of control

CCCCCCC(C)N(CC)CCOC(=O)c1ccc(N)cc1 (stereo not drawn)
T/C (dose: 75.0 mg/kg/injection, schedule: Q01DX001 (ip), vehicle: other): 94 % of control
T/C (dose: 150.0 mg/kg/injection, schedule: Q01DX001 (ip), vehicle: other): 98 % of control

O=C(O)COc1ccccc1[N+](=O)[O-]
T/C [5]: 96 % of control
T/C [6]: 100 % of control
T/C [7]: 96 % of control

CCNC(=S)NNc1ccccc1
T/C (dose: 100.0 mg/kg/injection, schedule: Q04DX003 (ip), vehicle: saline with Tween-80): 100 % of control
T/C (dose: 200.0 mg/kg/injection, schedule: Q04DX003 (ip), vehicle: saline with Tween-80): 96 % of control

CC(=O)OC1C=CCC2C(=O)C34CC=CC(OC(C)=O)C3(C(=O)c3ccccc3C4=O)C(=O)C12 (stereo not drawn)
T/C (dose: 0.25 mg/kg/injection, schedule: Q04DX003 (ip), vehicle: water): 97 % of control
T/C (dose: 0.5 mg/kg/injection, schedule: Q04DX003 (ip), vehicle: water): 102 % of control
T/C (dose: 1.0 mg/kg/injection, schedule: Q04DX003 (ip), vehicle: water): 95 % of control
T/C (dose: 2.0 mg/kg/injection, schedule: Q04DX003 (ip), vehicle: water): 98 % of control
T/C (dose: 4.0 mg/kg/injection, schedule: Q04DX003 (ip), vehicle: water): 102 % of control
T/C (dose: 8.0 mg/kg/injection, schedule: Q04DX003 (ip), vehicle: water): 107 % of control
T/C (dose: 16.0 mg/kg/injection, schedule: Q04DX003 (ip), vehicle: saline): 96 % of control
T/C (dose: 16.0 mg/kg/injection, schedule: Q04DX003 (ip), vehicle: water): 92 % of control
T/C (dose: 32.0 mg/kg/injection, schedule: Q04DX003 (ip), vehicle: saline): 98 % of control
T/C (dose: 64.0 mg/kg/injection, schedule: Q04DX003 (ip), vehicle: saline): 102 % of control

O=C(CC(C[N+](=O)[O-])c1ccccc1)c1ccccc1 (stereo not drawn)
T/C [5]: 96 % of control
T/C [6]: 100 % of control
T/C [7]: 96 % of control

O=C(N/N=C/C1CCCCC1)C(=O)N/N=C/C1CCCCC1
T/C (dose: 12.5 mg/kg/injection, schedule: Q01DX009 (ip), vehicle: Klucel (hydroxypropylcellulose) (HPC)): 90 % of control
T/C (dose: 25.0 mg/kg/injection, schedule: Q01DX009 (ip), vehicle: Klucel (hydroxypropylcellulose) (HPC)): 96 % of control and 89 % of control
T/C [2]: 89 % of control

NC(CSC(c1ccccc1)(c1ccccc1)c1ccc(Cl)cc1)C(=O)O (stereo not drawn)
T/C (dose: 1.3 mg/kg/injection, schedule: Q01DX009 (ip), vehicle: saline): 100 % of control
T/C (dose: 2.0 mg/kg/injection, schedule: Q01DX009 (ip), vehicle: saline): 118 % of control
T/C (dose: 6.25 mg/kg/injection, schedule: Q01DX009 (ip), vehicle: acetone): 151 % of control
T/C (dose: 12.5 mg/kg/injection, schedule: Q01DX009 (ip), vehicle: acetone): 156 % of control
T/C (dose: 12.5 mg/kg/injection, schedule: Q01DX009 (ip), vehicle: other): 163 % of control

CCCCNC(=O)Nc1c(C)cccc1C
T/C (dose: 100.0 mg/kg/injection, schedule: Q01DX009 (ip), vehicle: gum acacia): 99 % of control
T/C (dose: 100.0 mg/kg/injection, schedule: Q04DX003 (ip), vehicle: gum acacia): 92 % of control
T/C (dose: 200.0 mg/kg/injection, schedule: Q01DX009 (ip), vehicle: gum acacia): 87 % of control
T/C (dose: 200.0 mg/kg/injection, schedule: Q04DX003 (ip), vehicle: gum acacia): 91 % of control
T/C (dose: 400.0 mg/kg/injection, schedule: Q01DX009 (ip), vehicle: gum acacia): 87 % of control
T/C (dose: 400.0 mg/kg/injection, schedule: Q04DX003 (ip), vehicle: gum acacia): 92 % of control

CC(=O)CC(=O)Nc1cccc(C)n1
T/C (dose: 100.0 mg/kg/injection, schedule: Q01DX001 (ip), vehicle: saline): 100 % of control
T/C [5]: 94 % of control
T/C (dose: 200.0 mg/kg/injection, schedule: Q01DX001 (ip), vehicle: saline): 110 % of control
T/C [6]: 97 % of control

COC(=O)C(CCC(=O)OC(C)(C)C)NC(=O)C(CCC(=O)OC(C)(C)C)NC(=O)OCc1ccccc1 (stereo not drawn) (Cbz-Glu(OtBu)-Glu(OtBu)-OMe; configuration not given here)
T/C [3]: 100 % of control
T/C [4]: 99 % of control
T/C (dose: 400.0 mg/kg/injection, schedule: Q04DX003 (ip), vehicle: Klucel (hydroxypropylcellulose) (HPC)): 103 % of control

Cc1c(C(N)=O)sc2ccccc12
T/C (dose: 100.0 mg/kg/injection, schedule: Q01DX001 (ip), vehicle: carboxymethylcellulose (CMC)): 89 % of control
T/C (dose: 200.0 mg/kg/injection, schedule: Q01DX001 (ip), vehicle: carboxymethylcellulose (CMC)): 107 % of control
T/C (dose: 400.0 mg/kg/injection, schedule: Q01DX001 (ip), vehicle: carboxymethylcellulose (CMC)): 94 % of control

Clc1ccc2c(c1)C1=NCCCN1c1cc(Cl)ccc1-2
T/C (dose: 2.5 mg/kg/injection, schedule: Q01DX009 (ip), vehicle: saline): 105 % of control
T/C (dose: 2.5 mg/kg/injection, schedule: Q04DX002 (ip), vehicle: saline): 100 % of control
T/C (dose: 2.5 mg/kg/injection, schedule: Q04DX003 (ip), vehicle: Klucel (hydroxypropylcellulose) (HPC)): 102 % of control
T/C (dose: 5.0 mg/kg/injection, schedule: Q01DX009 (ip), vehicle: saline): 97 % of control
T/C (dose: 5.0 mg/kg/injection, schedule: Q04DX002 (ip), vehicle: saline): 96 % of control
T/C (dose: 5.0 mg/kg/injection, schedule: Q04DX003 (ip), vehicle: Klucel (hydroxypropylcellulose) (HPC)): 104 % of control
T/C (dose: 10.0 mg/kg/injection, schedule: Q01DX009 (ip), vehicle: saline): 97 % of control
T/C (dose: 10.0 mg/kg/injection, schedule: Q04DX002 (ip), vehicle: saline): 111 % of control
T/C (dose: 10.0 mg/kg/injection, schedule: Q04DX003 (ip), vehicle: Klucel (hydroxypropylcellulose) (HPC)): 104 % of control
T/C (dose: 20.0 mg/kg/injection, schedule: Q04DX003 (ip), vehicle: Klucel (hydroxypropylcellulose) (HPC)): 91 % of control

Source: PubChem BioAssay AID248 (DTP/NCI, 2004)
